As a reminder, the logD is lipophilicity at a set pH, counting ionised and neutral species. Higher therefore signals a more lipophilic compound.

The structures appear in SMILES notation.

The nature of series [1]: Metabolic stability in human liver microsomes assessed as intrinsic clearance at 1 uM measured upto 30 mins by LC-MS/MS analysis. In kind it is ADME, Microsome. The settings on record: read-out: CLH.
Series [2] can be described thus: Metabolic stability in human hepatocytes assessed as intrinsic clearance measured per 10^6 viable cells/ml at 1 uM measured upto 120 mins by LC-MS/MS analysis. In kind it is ADME, cell-based, Hepatocyte. The settings on record: read-out: CLH.
Series [3] can be described thus: Octanol/water partition coefficient, logD of the compound at pH 7.4 by shake flask method. Type of series: physicochemical.
Series [4] can be described thus: Metabolic stability in human liver microsomes assessed as unbound intrinsic clearance at 1 uM measured upto 30 mins by LC-MS/MS analysis. Type of series: ADME, Microsome. The settings on record: 0.5 h. (Liver microsomes are a subcellular fraction often used to study metabolism.)
A short description of series [5]: Metabolic stability in human hepatocytes assessed as unbound intrinsic clearance measured per 10^6 viable cells/ml at 1 uM measured upto 120 mins by LC-MS/MS analysis. In kind it is ADME, cell-based, Hepatocyte. The following applies: 2 h.

With `COc1c(C)cc(O[C@H]2CC[C@@](C)(C(=O)O)CC2)cc1C(=O)N[C@@H]1[C@H]2CC[C@H](C2)[C@@H]1C(=O)NCC1(C)CCC1`, the microsomal CLint at 1 µM in series [1] came to 7 µL/min/mg. Further, the hepatocyte CLint at 1 µM in series [2] stood at 5.6 µL/min/1e6 cells. Moreover, the logD in series [3] came out at 2.9. Besides, the CL free in series [4] came out at 10 µL/min/mg; in series [5], 8.9 µL/min.
As to `CC1(CNC(=O)[C@H]2[C@@H]3CC[C@@H](C3)[C@H]2NC(=O)c2cc(O[C@H]3CC[C@@](C)(C(=O)O)CC3)cc3c2OCC3)CCC1`, in series [1], the microsomal CLint at 1 µM was found to be 25 µL/min/mg. In addition, in series [2], the hepatocyte CLint at 1 µM is 3.3 µL/min/1e6 cells. The logD in series [3] is 2.9. Besides, the CL free came out at 30 µL/min/mg in series [4] and 5.1 µL/min in series [5].
Take `CC1(CNC(=O)[C@H]2[C@@H]3CC[C@@H](C3)[C@H]2NC(=O)c2cc(O[C@H]3CC[C@@](C)(C(=O)O)CC3)c(F)cc2O)CCC1`: the microsomal CLint at 1 µM in series [1] amounted to 12.6 µL/min/mg. Also, the hepatocyte CLint at 1 µM in series [2] was found to be 58 µL/min/1e6 cells. The compound also gave a log distribution coefficient (logD) in series [3] of 3.3. Besides, the CL free in series [4] was determined as 17 µL/min/mg; in series [5], 105 µL/min.
Consider `COc1c(F)cc(O[C@H]2CC[C@@](C)(C(=O)O)CC2)cc1C(=O)N[C@@H]1[C@H]2CC[C@H](C2)[C@@H]1C(=O)NCC1(C)CCC1`, for which the microsomal CLint at 1 µM in series [1] stood at 44 µL/min/mg. Besides, the hepatocyte CLint at 1 µM in series [2] was 5.3 µL/min/1e6 cells. In series [3], this compound showed a logD of 3.3. Also, the CL free in series [4] worked out at 73 µL/min/mg; in series [5], 9.5 µL/min.
`COc1cc(F)c(O[C@H]2CC[C@@](C)(C(=O)O)CC2)cc1C(=O)N[C@@H]1[C@H]2CC[C@H](C2)[C@@H]1C(=O)N[C@H](C)C(C)(C)C`: the microsomal CLint at 1 µM in series [1] stood at 33 µL/min/mg. Besides, in series [2], the hepatocyte CLint at 1 µM was determined as 5.9 µL/min/1e6 cells. Moreover, the pH-dependent lipophilicity (logD) in series [3] came to 3.4. The CL free in series [4] was determined as 50 µL/min/mg; in series [5], 11 µL/min.
For `CC1(CNC(=O)[C@H]2[C@@H]3CC[C@@H](C3)[C@H]2NC(=O)c2cc(O[C@H]3CC[C@@](C)(C(=O)O)CC3)c(F)cc2OC(F)F)CCC1`, in series [1], the microsomal CLint at 1 µM was determined as 34 µL/min/mg. Also, the hepatocyte CLint at 1 µM in series [2] turned out to be 26 µL/min/1e6 cells. This compound also displayed a log distribution coefficient (logD) in series [3] of 3.3. In addition, the figures for the CL free in series [4] and in series [5] were 59 µL/min/mg and 52 µL/min, respectively.
For `COc1cc(Cl)c(O[C@H]2CC[C@@](C)(C(=O)O)CC2)cc1C(=O)N[C@@H]1[C@H]2CC[C@H](C2)[C@@H]1C(=O)NCC1(C)CCC1`, in series [1], the microsomal CLint at 1 µM was determined as 36 µL/min/mg. The hepatocyte CLint at 1 µM in series [2] is 4.8 µL/min/1e6 cells. Besides, the logD in series [3] stood at 3.5. The CL free in series [4] amounted to 64 µL/min/mg; in series [5], 14 µL/min.
As to `COc1cc(C(F)F)c(O[C@H]2CC[C@@](C)(C(=O)O)CC2)cc1C(=O)N[C@@H]1[C@H]2CC[C@H](C2)[C@@H]1C(=O)NCC1(C)CCC1`, the microsomal CLint at 1 µM in series [1] amounted to 23 µL/min/mg. Besides, in series [2], the hepatocyte CLint at 1 µM was 5.1 µL/min/1e6 cells. Also, the logD in series [3] worked out at 3.8. Further, the results for the CL free in series [4] and in series [5] were 39 µL/min/mg and 11 µL/min, respectively.
Consider `COc1cc(Cl)c(O[C@H]2CC[C@@](C)(C(=O)O)CC2)cc1C(=O)N[C@@H]1[C@@H]2CC[C@@H](C2)[C@@H]1C(=O)NCC1(C)CCC1`, for which, in series [1], the microsomal CLint at 1 µM stood at 20 µL/min/mg. For the same compound, the hepatocyte CLint at 1 µM in series [2] turned out to be 49 µL/min/1e6 cells. In series [3], the log distribution coefficient (logD) is 3.6. Besides, the CL free came out at 100 µL/min/mg in series [4] and 153 µL/min in series [5].
Regarding `COc1cc(F)c(O[C@H]2C[C@@](C)(C(=O)O)C2)cc1C(=O)N[C@@H]1[C@H]2CC[C@H](C2)[C@@H]1C(=O)NCC1(C)CCC1`, the microsomal CLint at 1 µM in series [1] came to 7.6 µL/min/mg. Besides, the hepatocyte CLint at 1 µM in series [2] stood at 4.3 µL/min/1e6 cells. This compound also came in with a logD in series [3] of 2. Further, the values for the CL free in series [4] and in series [5] were 10 µL/min/mg and 5.4 µL/min, respectively.

These data come from ChEMBL document CHEMBL5518236, “Discovery of Clinical Candidate AZD5462, a Selective Oral Allosteric RXFP1 Agonist for Treatment of Heart Failure” (J Med Chem, 2024).
